Measurements as given in the supplement of paper PMC10307832.

Columns and labels:
Assay in all cases: relative viability (nuclei count vs DMSO), 5 days (fraction); higher = more cells survive
[1] = compound: NCC(=O)Nc1ccc(-n2nc(C(F)(F)F)cc2-c2ccc3c(ccc4ccccc43)c2)cc1 + Nc1ncn([C@H]2C[C@H](O)[C@@H](CO)O2)c(=O)n1 [Decitabine] (partner 2 µM)
In short: (§1)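 Nuclei were stained with Hoechst during a one-step fixation (final 0.05% Triton X-100, 1% formaldehyde, 1 ug/ml Hoechst) carried out 5 days after dosing, then counted on 4× images. The cells, lung cancer lines in 1536-well plates, had been dosed by pin tool the day after seeding with one drug alone or a fixed anchor-drug dose plus five library-drug doses (not always all listed) in √10 steps. Relative viability is the nuclei count in treated wells divided by that in vehicle wells, and each value is the median of duplicate plates.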

[2] = compound: C1CSC2=C(C(=O)N1)SC3=C2C=C(C=C3)O [kb NB 142-70] + Nc1ncn([C@H]2C[C@H](O)[C@@H](CO)O2)c(=O)n1 [Decitabine] (partner 2 µM)
In short: as §1

[3] = compound: NCC(=O)Nc1ccc(-n2nc(C(F)(F)F)cc2-c2ccc3c(ccc4ccccc43)c2)cc1 + CC1(C)CCC(c2ccc(Cl)cc2)=C(CN2CCN(c3ccc(C(=O)NS(=O)(=O)c4ccc(N[C@H](CCN5CCOCC5)CSc5ccccc5)c(S(=O)(=O)C(F)(F)F)c4)cc3)CC2)C1 [Navitoclax] (partner 0.5 µM)
In short: as §1

[4] = compound: C1CSC2=C(C(=O)N1)SC3=C2C=C(C=C3)O [kb NB 142-70] + O=C(CCCCCCC(=O)Nc1ccccc1)NO [Vorinostat] (partner 1 µM)
In short: as §1

kb NB 142-70 + Foretinib = compound: C1CSC2=C(C(=O)N1)SC3=C2C=C(C=C3)O [kb NB 142-70] + COc1cc2c(Oc3ccc(NC(=O)C4(C(=O)Nc5ccc(F)cc5)CC4)cc3F)ccnc2cc1OCCCN1CCOCC1 [Foretinib] (partner 0.25 µM)
In short: as §1

Row | Cell Line | relative viability ([1]; first compound 0.02 µM) | relative viability ([1]; first compound 0.06325 µM) | relative viability ([1]; first compound 0.2 µM) | relative viability ([1]; first compound 0.6325 µM) | relative viability ([1]; first compound 2 µM) | relative viability ([2]; first compound 0.1 µM) | relative viability ([2]; first compound 1 µM) | relative viability ([2]; first compound 3.162 µM) | relative viability ([3]; first compound 0.02 µM) | relative viability ([3]; first compound 0.06325 µM) | relative viability ([3]; first compound 0.2 µM) | relative viability ([3]; first compound 0.6325 µM) | relative viability ([3]; first compound 2 µM) | relative viability ([4]; first compound 0.1 µM) | relative viability ([4]; first compound 1 µM) | relative viability ([4]; first compound 3.162 µM) | relative viability (kb NB 142-70 + Foretinib; first compound 0.1 µM) | relative viability (kb NB 142-70 + Foretinib; first compound 1 µM) | relative viability (kb NB 142-70 + Foretinib; first compound 3.162 µM)
1 | NCI-H2009 | 0.337 | 0.457 | 0.409 | 0.349 | 0.408 | 0.371 | 0.38 | 0.375 | 1.12 | 1.15 | 1.27 | 1.11 | 1.13 | 0.724 | 0.95 | 0.688 | 1.2 | 1.22 | 0.872
2 | NCI-H2023 | 0.229 | 0.211 | 0.23 | 0.209 | 0.219 | 0.218 | 0.213 | 0.149 | 1.05 | 1.12 | 1.01 | 1 | 1.01 | 0.613 | 0.667 | 0.343 | 0.859 | 0.89 | 0.663
3 | NCI-H2085 | 0.577 | 0.519 | 0.592 | 0.556 | 0.534 | 0.55 | 0.522 | 0.448 | 1.06 | 1.16 | 1.28 | 1.17 | 1.08 | 0.772 | 0.857 | 0.483 | 0.964 | 1.06 | 0.513
4 | NCI-H2087 | 0.249 | 0.245 | 0.246 | 0.282 | 0.251 | 0.277 | 0.245 | 0.189 | 0.849 | 1.11 | 0.939 | 0.969 | 1.03 | 0.506 | 0.687 | 0.423 | 1.25 | 1.32 | 0.968
5 | NCI-H2126 | 0.568 | 0.568 | 0.583 | 0.596 | 0.572 | 0.555 | 0.616 | 0.571 | 0.866 | 0.865 | 0.851 | 0.876 | 0.852 | 0.755 | 0.796 | 0.805 | 1.18 | 0.869 | 1.14
6 | NCI-H2170 | 0.496 | 0.454 | 0.518 | 0.446 | 0.45 | 0.501 | 0.496 | 0.369 | 0.56 | 0.598 | 0.578 | 0.561 | 0.6 | 0.823 | 0.86 | 0.744 | 0.996 | 1.07 | 0.953
7 | NCI-H2347 | 0.661 | 0.599 | 0.74 | 0.615 | 0.599 | 0.651 | 0.613 | 0.58 | 0.771 | 0.878 | 1 | 0.906 | 0.833 | 0.629 | 0.641 | 0.599 | 0.744 | 1.21 | 0.72
8 | NCI-H2405 | 0.686 | 0.759 | 0.837 | 0.723 | 0.754 | 0.727 | 0.783 | 0.648 | 0.848 | 1 | 0.941 | 0.913 | 0.969 | 1.04 | 1.03 | 0.587 | 1.05 | 1.05 | 0.776
